This is an account of results in patent publication US20060094676A1, “Compositions and methods for treating cancer using compositions comprising an inhibitor of endothelin receptor activity” (priority 2004, published 2006).

In one test the test system is caspase 6. Kind of test: Mch2/Caspase-6 colorimetric protease assay on cell lysates. It is filed as cell-based, human. To be noted: SK-MEL-28; after 3 days of treatment with BQ788. Here is the method: Equal amounts of RNA from cells that were treated with BQ788 for 3 days were subjected to real-time RT-PCR analysis for the detection of BCL-2A1 (A) and ADP ribosyltransferase 3 (B) transcripts. Total amounts are represented in A while relative (to control) values are shown in B. Differences in expression levels are shown as x fold decrease and are statistically significant (p<0.05) unless a column in marked as non significant (N.S.). Lysates of BQ788 treated cells and controls were subjected to an apoptosis ELISA detection test (C). SK-MEL-28 cells were cultured with pan caspase inhibitor (D) or with caspase 6 inhibitor (E) with or without BQ788 for 2.5 days. […] SK-MEL-28 cells were cultured for 3 days in the presence of BQ788 and assayed for caspase 6 activity (F). […]
Caspase 3 inhibitor I (inhibits caspases 3, 6, 7, 8 & 10), cell-permeable (Calbiochem) and Caspase 6 inhibitor II, Cell-Permeable (Calbiochem) were dissolved in DMSO. […] Cell viability was measured using MTS solution in parallel experiments at 5 different time points. Caspase 6 activity was measured using Mch2/Caspase-6 Colorimetric Protease Assay Kit according to the manufacturer's instructions. […] Caspase 6 activity was measured in 4 samples containing equal amounts of protein from each condition by spectrophotometric detection of a chromophore following its release from the labeled caspase 6 substrate VEID. […]

The next test has as its system BCL-2A1. The test can be described thus: Real-time RT-PCR of BCL-2A1 transcripts. As to conditions: BQ788 3 days. The format is cell-based, human. The method, then: Equal amounts of RNA from cells that were treated with BQ788 for 3 days were subjected to real-time RT-PCR analysis for the detection of BCL-2A1 (A) and ADP ribosyltransferase 3 (B) transcripts. Total amounts are represented in A while relative (to control) values are shown in B. Differences in expression levels are shown as x fold decrease and are statistically significant (p<0.05) unless a column in marked as non significant (N.S.). Lysates of BQ788 treated cells and controls were subjected to an apoptosis ELISA detection test (C). SK-MEL-28 cells were cultured with pan caspase inhibitor (D) or with caspase 6 inhibitor (E) with or without BQ788 for 2.5 days. […] SK-MEL-28 cells were cultured for 3 days in the presence of BQ788 and assayed for caspase 6 activity (F). The difference between the columns is statistically significant (p<0.05).
RNA was prepared from the different cell lines in different culture conditions using SV total RNA isolation kit (Promega) according to the manufacturer's protocol. For each sample RNA concentration was determined using the total RNA nano procedure of an Agilent bioanalyzer. A stock of SK-MEL-28 RNA aliquots was prepared containing 10, 20, 50, 100, 200, 500 and 1000 ng/12 μl for use as a standard curve and kept in −80° C. For the experimental unknown samples, a stock of 100 ng/12 μl RNA aliquots from each cell line and condition was prepared and stored at −80° C. For each real-time experiment one series of standard curve and unknown experimental series of aliquots was put on ice for use. Complementary DNA was prepared by adding to each tube 0.5 μl of random hexamers (Promega) and 1 μl of 10 mM dNTP mix (Promega) and incubating at 65° C. for 5 min. 4 μl of 5× M-MLV buffer (Promega), 1 μl of the RNase inhibitor RNasin (Promega) and 1 μl of M-MLV RT RNase H (Promega) were then added and the solution was incubated at 42° C. for 50 min followed by 15 min at 70° C. For real time reactions 15 μl of each cDNA sample were transferred to 3 wells in a 386 well plate. To each well we added 10 μl of TaqMan universal PCR master mix (Applied Biosystems), 1 μl of primers+probe mix (Assays-on-Demand from Applied Biosystems: EDNRB Hs00240747, BCL-2A1 Hs00187845, PARP-3 Hs00154151, VEGF Hs00173626, HIF-1α Hs00153153 and Gravin Hs00374507) and 4 μl of nuclease free water (Promega). […] A standard curve of Ct versus RNA quantity was established and accordingly the Ct in the unknown samples was correlated to quantity of transcript.
If the observed reduction in BCL-2A1 and PARP-3 expression is implicated in ETRB blockade-dependent cell death, one would expect the more resistant cell lines to display less reduction in BCL-2A1 and PARP-3 levels. To test this possibility and to validate our microarray results, we used quantitative real-time PCR.
For orientation: Real-time PCR tracks product formation cycle by cycle.

For the compound `CCCC[C@@H](NC(=O)[C@@H](Cc1cn(C(=O)OC)c2ccccc12)NC(=O)[C@H](CC(C)(C)C)NC(=O)N1[C@H](C)CCC[C@@H]1C)C(=O)O` [BQ788, N-cis-2,6-dimethylpiperidinocarbonyl-L-γ-methylleucyl-D-1-methoxycarbonyltrptophanyl-D-norleucine], the “caspase 6 activation” value with caspase 6 is recorded as “could be detected”. For the same compound, the “decrease in BCL-2A1 levels” value in the test with BCL-2A1 (Cut-met line) is 1.8 fold; with BCL-2A1 (LN-met) it was 2.9 fold; with BCL-2A1 (SK-MEL-28) it was 5.7 fold. In addition, in the test on BCL-2A1 (primary melanoma cells), the BCL-2A1 expression change result is given as “did not change”.
